From US20090005253A1, “Double Hybrid System Based on Gene Silencing by Transcriptional Interference” (AVENTIS PHARMA S.A., priority 2004, published 2009)

Test system: Fe65/App interaction
Assay: growth restoration test on solid medium, yRB49 (rY2H UI interference system) expressing the Fe65/App interaction
Format: cell-based
Settings: medium free of histidine, 1 mM 3-AT; 1 μl at 0.125%, 0.25%, 0.5% or 1% at center of dish; 30° C., 48 hours
Method: The strain containing the UI transcriptional interference system (yRB49) and cotransformed with the plasmids pRB34 and pRB35 (Fe65/App interaction) was plated out onto medium without histidine and containing 1 mM of 3-AT. […] The dishes were incubated at 30° C. for 48 hours.
The strain containing the UI transcriptional interference system (yRB49) was cotransformed with the pairs of plasmids pRB34 and pRB35 (Fe65/App interaction) or pDBT-mdm2 and pVP16-p53Nt (mdm2/p53 interaction). The strain containing the plasmids pRB34 and pRB35 (Fe65/App interaction) was plated out onto 5 dishes of medium without histidine supplemented with 1 mM of 3-AT (top row); the strain containing the plasmids pDBT-mdm2 and pVP16-p53Nt (mdm2/p53 interaction) was similarly plated out onto 5 dishes of medium without histidine supplemented with 20 mM of 3-AT (bottom row).
A control dish was prepared for each interaction by depositing 1 μl of histidine at 0.125% w/v at the center of this dish. A different molecule, A, B, C or D, was deposited onto each of the other 4 dishes, according to the following scheme: in the upper left corner, 1 μl of the product at a concentration of 0.1 mM is deposited; in the upper right corner, 1 μl of the same product at a concentration of 1 mM is deposited; at the center, 1 μl of this product at 10 mM is deposited. […]

Compound: N[C@@H](Cc1c[nH]cn1)C(=O)O [histidine]
- restoration of growth around the deposit by nutrient (FIG. 8C): capable of restoring the growth
